# Test results as given in ChEMBL document CHEMBL1811844, “Design, synthesis, and biological evaluation of triazolo-pyrimidine derivatives as novel inhibitors of hepatitis B virus surface antigen (HBsAg) secretion” (J Med Chem, 2011).
# Test: Cytotoxicity against human HepG2(2.2.15) cells by MTT assay
# Format: cell-based
compound,measurement,value
Cc1ccc(C2=CC(c3c(F)cccc3Cl)n3ncnc3N2)cc1C (stereo unspecified),CC50,> 50 µM
